Laboratory results reported in patent publication US6372785B1, “Synthesis of 1,8-dichloro-anthracene analogues and pharmaceutical compositions based thereon” (Keith Chan, President GloboAsia, LLC, priority 2000, dated 2002).

melting point | SMILES
136 to 138 °C | CCCCCC(=O)Oc1c2c(Cl)cccc2cc2cccc(Cl)c12 [Compound 3k, 1,8-Dichloro-9-hexanoyloxyanthracene]
152 to 154 °C | CCCC(=O)Oc1c2c(Cl)cccc2cc2cccc(Cl)c12 [Compound 3h, 1,8-Dichloro-9-butyroxyanthracene]
196 to 198 °C | Cc1cccc(C(=O)Oc2c3c(Cl)cccc3cc3cccc(Cl)c23)c1 [Compound 3n, 1,8-Dichloro-9-(m-toluoyloxy)anthracene]
220 to 222 °C | Cc1ccc(C(=O)Oc2c3c(Cl)cccc3cc3cccc(Cl)c23)cc1 [Compound 3o, 1,8-Dichloro-9-(p-toluoyloxy)anthracene]
150 to 152 °C | CCC(=O)Oc1c2c(Cl)cccc2cc2cccc(Cl)c12 [Compound 3d, 1,8-Dichloro-9-propionoxyanthracene]
155 to 157 °C | O=C(CCCBr)Oc1c2c(Cl)cccc2cc2cccc(Cl)c12 [Compound 3I, 1,8-Dichloro-9-(4-bromobutyroxy)anthracene]
184 to 186 °C | CC(C)C(=O)Oc1c2c(Cl)cccc2cc2cccc(Cl)c12 [Compound 3e, 1,8-Dichloro-9-isobutyroxyanthracene]
168 to 170 °C | Cc1ccccc1C(=O)Oc1c2c(Cl)cccc2cc2cccc(Cl)c12 [Compound 3m, 1,8-Dichloro-9-(o-toluoyloxy)anthracene]
183 to 185 °C | O=C(Oc1c2c(Cl)cccc2cc2cccc(Cl)c12)c1ccccc1 [Compound 3L, 1,8-Dichloro-9-benzoyloxyanthracene]

SMILES | melting point
O=C(CBr)Oc1c2c(Cl)cccc2cc2cccc(Cl)c12 [Compound 3b, 1,8-Dichloro-9-bromoacetoxyanthracene] | 192 to 193 °C
O=C(CCl)Oc1c2c(Cl)cccc2cc2cccc(Cl)c12 [Compound 3c, 1,8-Dichloro-9-chloroacetoxyanthracene] | 178 to 180 °C
CC(=O)Oc1c2c(Cl)cccc2cc2cccc(Cl)c12 [Compound 3a, 1,8-Dichloro-9-acetoxyanthracene] | 130 to 131 °C
